Results on 21 compounds are retold here after patent US12503452B2 (Curza Global, LLC, priority 2019, dated 2025).

The target of assay [1] is Rabbit Reticulocyte Lysate (eukaryotic protein synthesis). Kind of assay: Rabbit reticulocyte lysate luciferase assay (inhibition of eukaryotic protein synthesis). It is filed as biochemical. The conditions noted are these: class by IC50 or % inhibition @ 1 μM, read-out: Rabbit reticulocyte IC50 (μM/% inhib.). The gist of the method: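 Nuclease-treated rabbit reticulocyte lysate translating luciferase control RNA, with complete amino acids, was incubated at 30° C. for 90 minutes with 2-fold serial compound dilutions. Luminescence was measured after adding luciferase reagent. % inhibition was relative to water controls, with no-RNA wells as background.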

The subject of assay [2] is E. coli (Ec). Kind of assay: Broth microdilution minimum inhibitory concentration (MIC). It is filed as cell-based. The conditions noted are these: E. coli, growth medium with sodium bicarbonate; for MIC: Escherichia coli, read-out: E. coli + bicarb MIC. The gist of the method:
(§1)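 Following CLSI M07-A9 with minor changes, growth medium was cation-adjusted Mueller-Hinton broth, alone or supplemented with bicarbonate (6.25 or 25 mM) or heat-inactivated human serum up to 50%. Each compound was tested over eight two-fold dilutions against 5×10^4 CFU per well.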
(Broth dilution looks for growth in wells or tubes with falling amounts of substance.)

Assay [3] deals with E. faecalis (Ef). The assay is described as above. It is filed as cell-based. The conditions noted are these: E. faecalis, growth medium with sodium bicarbonate; for MIC: Enterococcus faecalis, read-out: Ef + bicarb MIC. The gist of the method:
as §1

In assay [4] the test system is P. aeruginosa (Pa). Described as above. It is filed as cell-based. The conditions noted are these: P. aeruginosa, growth medium with sodium bicarbonate; for MIC: Pseudomonas aeruginosa, read-out: Pa MIC + bicarb. The method in brief:
as §1

The test system of assay [5] is A. baumannii (Ab). Described as above. It is filed as cell-based. The conditions noted are these: A. baumannii, growth medium with sodium bicarbonate; for MIC: Acinetobacter baumannii, read-out: Ab + bicarb MIC. The method in brief:
as §1

In assay [6] the test system is S. aureus (Sa). The assay is described as above. It is filed as cell-based. The conditions noted are these: S. aureus, growth medium with sodium bicarbonate; for MIC: Staphylococcus aureus, read-out: Sa + bicarb MIC. The gist of the method: as §1
Assay [7] has as its system E. coli S30 extract (bacterial protein synthesis). In words: E. coli S30 extract coupled transcription-translation luciferase assay (inhibition of bacterial protein synthesis). It is filed as biochemical. The following applies: class by IC50 or % inhibition @ 1 μM, read-out: S30 IC50 (μM/% inhib.). The gist of the method: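 Cell-free coupled transcription-translation in E. coli S30 circular-DNA extract, with pBESTluc plasmid as template and complete amino acid mix. Eight 2-fold compound dilutions were incubated with the extract 1 h at 37 °C, chilled, then luciferase luminescence was read. % inhibition was taken relative to no-inhibitor wells; no-DNA wells gave background.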

As to `CC(Cc1ccc(-n2ccc(NC(=O)N3CCN(C(=O)C(C)(C)N)CC3)nc2=O)cc1)N(C)[C@H]1CC[C@@H](N)CC1` (stereo partly drawn) [Compound 175], the IC50 in assay [1] is greater than 1 µM; in assay [7], less than 0.5 µM. Also, the MIC in assay [2] was less than 8 µg/mL; in assay [3] it was less than 8 µg/mL; in assay [5], greater than 32 µg/mL; in assay [6], less than 8 µg/mL. In addition, the “Pa MIC + bicarb” value in assay [4] is “++ (An MIC value (μg/mL) that is 8 μg/mL or greater and less than 32 μg/mL)”.

With `CC(Cc1ccc(-n2ccc(NC(=O)N3CCN(C(=O)C(C)(C)N)CC3)nc2=O)cc1)N(C)[C@H]1CC[C@@H](N)CC1` (stereo partly drawn) [Compound 176], the IC50 in assay [1] was greater than 1 µM; in assay [7], less than 0.5 µM. In addition, the “E. coli + bicarb MIC” value in assay [2] is listed as “+++ (An MIC value (μg/mL) that is less than 8 μg/mL)”. In addition, in assay [3], the “Ef + bicarb MIC” value is “+++ (An MIC value (μg/mL) that is less than 8 μg/mL)”. In addition, the “Pa MIC + bicarb” value in assay [4] is recorded as “+ (An MIC value (μg/mL) that is 32 μg/mL or greater)”. The “Ab + bicarb MIC” value in assay [5] is on record as “+ (An MIC value (μg/mL) that is 32 μg/mL or greater)”. Moreover, the “Sa + bicarb MIC” value in assay [6] is recorded as “+++ (An MIC value (μg/mL) that is less than 8 μg/mL)”.

Consider `CC(C)(N)C(=O)N1CCN(C(=O)Nc2ccn(-c3ccc(CCN[C@H]4CC[C@@H](N)CC4)cc3)c(=O)n2)CC1` [Compound 179], for which the IC50 is greater than 1 µM in assay [1] and less than 0.5 µM in assay [7]. The MIC in assay [2] was less than 8 µg/mL; in assay [3], 8 to 32 µg/mL; in assay [4], greater than 32 µg/mL; in assay [5], greater than 32 µg/mL; in assay [6] it was less than 8 µg/mL.

For the compound `CC(C)(N)C(=O)N1CCN(C(=O)Nc2ccn(-c3ccc(CCN[C@H]4CC[C@H](N)CC4)cc3)c(=O)n2)CC1` [Compound 180], the IC50 in assay [1] is greater than 1 µM; in assay [7], 0.5 to 1 µM. The MIC was less than 8 µg/mL in assay [2]; greater than 32 µg/mL in assay [3]; greater than 32 µg/mL in assay [4]; greater than 32 µg/mL in assay [5]; 8 to 32 µg/mL in assay [6].

`CC(C)(N)C(=O)N1CCN(C(=O)Nc2ccn(-c3ccc(CCN[C@@H]4CC[C@H](N)C4)cc3)c(=O)n2)CC1` [Compound 181]: the IC50 in assay [1] is greater than 1 µM; in assay [7], less than 0.5 µM. Besides, the MIC in assay [2] was less than 8 µg/mL; in assay [3] it was 8 to 32 µg/mL; in assay [4], greater than 32 µg/mL; in assay [5], greater than 32 µg/mL; in assay [6], less than 8 µg/mL.

For `CC(CN1CC(N)C1)Oc1ccc(-n2ccc(NC(=O)N3CCN(C(=O)C(C)(C)N)CC3)nc2=O)cc1` (stereo not drawn) [Compound 182], the IC50 in assay [1] and in assay [7] was greater than 1 µM in each case. In addition, the MIC is 8 to 32 µg/mL in assay [2]; greater than 32 µg/mL in assay [3]; greater than 32 µg/mL in assay [4]; greater than 32 µg/mL in assay [5]; greater than 32 µg/mL in assay [6].

For the compound `CC(CNC1CNC1)Oc1ccc(-n2ccc(NC(=O)N3CCN(C(=O)C(C)(C)N)CC3)nc2=O)cc1` (stereo not drawn) [Compound 183], the IC50 in assay [1] and in assay [7] was greater than 1 µM throughout. In addition, the MIC in assay [2], in assay [3], in assay [4], in assay [5] and in assay [6] was greater than 32 µg/mL each time.

In the case of `CC(CN1CC[C@H](CN)C1)Oc1ccc(-n2ccc(NC(=O)N3CCN(C(=O)C(C)(C)N)CC3)nc2=O)cc1` (stereo partly drawn) [Compound 184], the IC50 in assay [1] is greater than 1 µM; in assay [7], less than 0.5 µM. The MIC in assay [2] is less than 8 µg/mL; in assay [3], 8 to 32 µg/mL; in assay [4], greater than 32 µg/mL; in assay [5], greater than 32 µg/mL; in assay [6], less than 8 µg/mL.

For `CC(CN1CC[C@@H](CN)C1)Oc1ccc(-n2ccc(NC(=O)N3CCN(C(=O)C(C)(C)N)CC3)nc2=O)cc1` (stereo partly drawn) [Compound 185], the figures for the IC50 in assay [1] and in assay [7] were greater than 1 µM and less than 0.5 µM, respectively. The MIC in assay [2] was less than 8 µg/mL; in assay [3], 8 to 32 µg/mL; in assay [4], greater than 32 µg/mL; in assay [5], greater than 32 µg/mL; in assay [6], less than 8 µg/mL.

Consider `CC(COc1ccc(-n2ccc(NC(=O)N3CCN(C(=O)C(C)(C)N)CC3)nc2=O)cc1)N1CC[C@@H](CN)C1` (stereo partly drawn) [Compound 186], for which the IC50 in assay [1] is greater than 1 µM; in assay [7] it was less than 0.5 µM. Moreover, the MIC in assay [2] is less than 8 µg/mL; in assay [3], 8 to 32 µg/mL; in assay [4], greater than 32 µg/mL; in assay [5], greater than 32 µg/mL; in assay [6], less than 8 µg/mL.

On to `CC(C)(N)C(=O)N1CCN(C(=O)Nc2ccn(-c3ccc(OCCN4CCCC(N)CC4)cc3)c(=O)n2)CC1` (stereo not drawn) [Compound 187], for which the IC50 in assay [1] is greater than 1 µM; in assay [7], less than 0.5 µM. The MIC in assay [2] was less than 8 µg/mL; in assay [3], less than 8 µg/mL; in assay [4] it was greater than 32 µg/mL; in assay [5], 8 to 32 µg/mL; in assay [6], less than 8 µg/mL.

As for `CC(C)(N)C(=O)N1CCN(C(=O)Nc2ccn(-c3ccc(OCCN4CCCC(CN)C4)cc3)c(=O)n2)CC1` (stereo not drawn) [Compound 188], the IC50 was greater than 1 µM in assay [1] and less than 0.5 µM in assay [7]. Moreover, the MIC is less than 8 µg/mL in assay [2]; less than 8 µg/mL in assay [3]; greater than 32 µg/mL in assay [4]; greater than 32 µg/mL in assay [5]; less than 8 µg/mL in assay [6].

Turning to `CC(COc1ccc(-n2ccc(NC(=O)N3CCN(C(=O)C(C)(C)N)CC3)nc2=O)cc1)N1CC[C@H](CN)C1` (stereo partly drawn) [Compound 190], the IC50 in assay [1] was greater than 1 µM; in assay [7], less than 0.5 µM. The MIC in assay [2] was less than 8 µg/mL; in assay [3] it was less than 8 µg/mL; in assay [4] it was greater than 32 µg/mL; in assay [5], greater than 32 µg/mL; in assay [6], less than 8 µg/mL.

Take `CC(COc1ccc(-n2ccc(NC(=O)N3CCN(C(=O)C(C)(C)N)CC3)nc2=O)cc1)N1CCCC(N)CC1` (stereo not drawn) [Compound 191]: the IC50 is greater than 1 µM in assay [1] and 0.5 to 1 µM in assay [7]. Also, the MIC in assay [2] is less than 8 µg/mL; in assay [3] it was 8 to 32 µg/mL; in assay [4], greater than 32 µg/mL; in assay [5], greater than 32 µg/mL; in assay [6], less than 8 µg/mL.

On to `NC1CCCN(CCc2ccc(-n3ccc(NC(=O)N4CCC5(CC4)CNC5)nc3=O)cc2)CC1` (stereo not drawn) [Compound 192], for which the IC50 in assay [1] and in assay [7] was greater than 1 µM throughout. The MIC was less than 8 µg/mL in assay [2]; 8 to 32 µg/mL in assay [3]; greater than 32 µg/mL in assay [4]; greater than 32 µg/mL in assay [5]; less than 8 µg/mL in assay [6].

As to `NC1CCCN(CCc2ccc(-n3ccc(NC(=O)N4CC5(CC(N)C5)C4)nc3=O)cc2)CC1` (stereo not drawn) [Compound 193], the IC50 was greater than 1 µM in assay [1] and less than 0.5 µM in assay [7]. Moreover, the MIC in assay [2] was less than 8 µg/mL; in assay [3], 8 to 32 µg/mL; in assay [4], greater than 32 µg/mL; in assay [5], greater than 32 µg/mL; in assay [6], less than 8 µg/mL.

Consider `NCC1CN(C(=O)Nc2ccn(-c3ccc(CCN4CCCC(N)CC4)cc3)c(=O)n2)C1` (stereo not drawn) [Compound 194], for which the figures for the IC50 in assay [1] and in assay [7] were greater than 1 µM and 0.5 to 1 µM, respectively. In addition, the MIC in assay [2] was less than 8 µg/mL; in assay [3], greater than 32 µg/mL; in assay [4], greater than 32 µg/mL; in assay [5] it was greater than 32 µg/mL; in assay [6] it was greater than 32 µg/mL.

Take `NC1CCCN(CCc2ccc(-n3ccc(NC(=O)N4CC5(CCC5N)C4)nc3=O)cc2)CC1` (stereo not drawn) [Compound 195]: the IC50 in assay [1] was greater than 1 µM; in assay [7] it was 0.5 to 1 µM. Also, the minimal inhibitory concentration (MIC) is greater than 32 µg/mL in assay [2]; greater than 32 µg/mL in assay [3]; greater than 32 µg/mL in assay [4]; greater than 32 µg/mL in assay [5]; 8 to 32 µg/mL in assay [6].

Take `CC(C)(N)C(=O)N1CCN(C(=O)Nc2ccn(-c3ccc(CCN4CCC(N)CC4)cc3)c(=O)n2)CC1` [Compound 198]: the IC50 in assay [1] was greater than 1 µM; in assay [7], less than 0.5 µM. Further, the MIC in assay [2] is less than 8 µg/mL; in assay [3], 8 to 32 µg/mL; in assay [4], greater than 32 µg/mL; in assay [5] it was greater than 32 µg/mL; in assay [6], 8 to 32 µg/mL.

With `C[C@@](N)(CO)C(=O)N1CCN(C(=O)Nc2ccn(-c3ccc(CCN4CCC(N)CC4)cc3)c(=O)n2)CC1` [Compound 199], the IC50 in assay [1] was greater than 1 µM; in assay [7], less than 0.5 µM. For the same compound, the MIC is less than 8 µg/mL in assay [2]; greater than 32 µg/mL in assay [3]; greater than 32 µg/mL in assay [4]; greater than 32 µg/mL in assay [5]; 8 to 32 µg/mL in assay [6].

Consider `CCOC(=O)C1(CN)CN(Cc2ccc(-n3ccc(NC(=O)N4CCN(C(=O)C(C)(C)N)CC4)nc3=O)cc2)C1` [Compound 201], for which the IC50 in assay [1] and in assay [7] was greater than 1 µM in each case. In addition, the MIC in assay [2], in assay [3], in assay [4], in assay [5] and in assay [6] was greater than 32 µg/mL throughout.

The MIC is the least concentration at which growth counts as inhibited.
